Test results taken from US20240417405A1, “Substituted Spiro Derivatives” (Janssen Pharmaceutica NV, priority 2021, published 2024).

Columns and labels:
MOLM14 cells = test: Proliferation assay, spheroid-like growth, MOLM14 (MLL-AF9 rearranged); assay type: cell-based, human; settings: Homo sapiens, MOLM-14, 192 h, 8 days, confluence as measure of spheroid size, read-out: spheroid assay_OneTime MOLM14 IC50
Summary of the method: (§1)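 200 MOLM14 or 300 KO-52 cells/well, ultra-low attachment, compound dilutions, DMSO 0.3%; 8 d, 37 °C, 5% CO2. Read: live-cell imaging confluence (spheroid size) day 8. Absolute IC50, min 0%/max 100% fixed, variable slope.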

[1] = target: T1, menin/MLL (terbium chelate-labeled menin, FITC-MBM1 peptide) (Homo sapiens, UniProt O00255, T541A); test: Menin/MLL homogenous time-resolved fluorescence (HTRF) assay; assay type: binding; settings: 30 min incubation
T1 construct: Menin (a.a 1-610-6xhis tag)
T1 sequence (O00255 with tags, fused parts or gaps T541A): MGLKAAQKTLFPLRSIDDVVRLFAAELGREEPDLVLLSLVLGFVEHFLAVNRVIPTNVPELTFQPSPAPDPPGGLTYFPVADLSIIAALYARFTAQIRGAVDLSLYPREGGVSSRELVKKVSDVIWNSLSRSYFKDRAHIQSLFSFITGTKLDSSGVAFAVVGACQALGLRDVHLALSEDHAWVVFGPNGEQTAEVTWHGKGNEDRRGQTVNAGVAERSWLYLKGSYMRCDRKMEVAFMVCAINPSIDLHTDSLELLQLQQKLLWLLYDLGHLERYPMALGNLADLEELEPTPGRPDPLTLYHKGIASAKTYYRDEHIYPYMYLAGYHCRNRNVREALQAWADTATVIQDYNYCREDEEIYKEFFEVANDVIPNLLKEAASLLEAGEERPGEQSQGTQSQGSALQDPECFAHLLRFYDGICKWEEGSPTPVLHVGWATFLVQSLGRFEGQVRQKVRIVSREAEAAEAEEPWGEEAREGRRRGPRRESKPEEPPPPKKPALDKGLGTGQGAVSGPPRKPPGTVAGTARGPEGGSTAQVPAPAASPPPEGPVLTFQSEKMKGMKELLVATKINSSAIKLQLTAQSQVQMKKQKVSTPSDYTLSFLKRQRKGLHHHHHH
Summary of the method: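 Tb-cryptate menin (1-610, 6xHis) 200 pM + cmpd, 30 min RT; + FITC-MBM1 75 nM, 15 min RT. 40 mM Tris pH 7.5, 50 mM NaCl, 1 mM DTT, 0.05% Pluronic F-127, 0.5% DMSO. HTRF 520/490; 11-pt 4-fold from 10 μM; IC50 fit.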

KO-52 cells = test: Proliferation assay, spheroid-like growth, KO-52 (MLL wildtype control cell line); assay type: cell-based, human; settings: Homo sapiens, 192 h, KO-52 control cells, 8 days, confluence as measure of spheroid size; read-out: spheroid assay_OneTime KO-52 IC50
Summary of the method: as §1

SMILES | IC50 (MOLM14 cells) [nM] | IC50 [1] [nM] | IC50 (KO-52 cells) [µM]
CCC(=O)N[C@H]1C[C@@H]([C@@H](C(C)C)N2CC3(CCN(c4ncnnc4Oc4ccc(F)cc4-c4cncnc4C4CC4)C3)C2)C1 (single isomer, unassigned) [Compound 356] | 11 | 0.3 | > 15
CC(C)[C@H](C1CCN(C[C@H]2C[C@@H](O)C2)CC1)N1CC2(CCN(c3ncnnc3Oc3ccc(F)cc3-c3cncnc3C3CC3)C2)C1 (single isomer, unassigned) [Compound 357] | 45 | 0.1 | 9.79
CC(C)[C@H](C1CCN(C[C@H]2C[C@H](O)C2)CC1)N1CC2(CCN(c3ncnnc3Oc3ccc(F)cc3-c3cncnc3C3CC3)C2)C1 (single isomer, unassigned) [Compound 358] | 23 | 0.1 | 2.21
CC(=O)N1CC2(C1)CN([C@H]1C[C@@H]([C@H](C(C)C)N3CC4(CCN(c5ncnnc5Oc5ccc(F)cc5-c5cnc(C)cc5C5CC5)C4)C3)C1)C2 (single isomer, unassigned) [Compound 371] | 3 | 0.15 | 10.1
CC(=O)N1CC2(C1)CN([C@H]1C[C@@H]([C@H](C(C)C)N3CC4(CCN(c5ncnnc5Oc5ccc(F)cc5-c5ncc(C)cc5C5CC5)C4)C3)C1)C2 (single isomer, unassigned) [Compound 373] | 7.6 | 0.77 | 5.41
CC(=O)Nc1nccc(N[C@H]2C[C@@H]([C@@H](C(C)C)N3CC4(CCN(c5ncnnc5Oc5ccc(F)cc5-c5cncnc5C5CC5)C4)C3)C2)n1 (single isomer, unassigned) [Compound 405] | 3 | 0.22 | 7.57
CC(C)[C@H]([C@H]1C[C@@H](Nc2ncc(C(=O)N(C)C)o2)C1)N1CC2(CCN(c3ncnnc3Oc3ccc(F)cc3-c3cncnc3C3CC3)C2)C1 (single isomer, unassigned) [Compound 435] | 3 | 0.17 | 2.47
CNC(=O)c1cnc(N[C@H]2C[C@@H](C(C(C)C)N3CC4(CCN(c5ncnnc5Oc5ccc(F)cc5-c5cncnc5C5CC5)C4)C3)C2)o1 (single isomer, unassigned) [Compound 436] | 9.9 | 0.36 | 5.97
CNC(=O)c1cnc(N[C@H]2C[C@@H]([C@@H](C(C)C)N3CC4(CCN(c5ncnnc5Oc5ccc(F)cc5-c5cncnc5C5CC5)C4)C3)C2)s1 (single isomer, unassigned) [Compound 437] | 3.3 | 0.05 | 4.7
CCOC(=O)c1cnc(N[C@H]2C[C@@H](C(C(C)C)N3CC4(CCN(c5ncnnc5Oc5ccc(F)cc5-c5cncnc5C5CC5)C4)C3)C2)o1 (single isomer, unassigned) [Compound 478] | 12 | 0.29 | 1.25
CC(C)C([C@H]1C[C@@H](Nc2ncc(C(=O)O)o2)C1)N1CC2(CCN(c3ncnnc3Oc3ccc(F)cc3-c3cncnc3C3CC3)C2)C1 (single isomer, unassigned) [Compound 479] | 530 | 1.77 | > 15
CC(=O)N[C@H]1C[C@@H](C(C(C)C)N2CC3(CCN(c4ncnnc4Oc4ccc(F)cc4-c4cncnc4C4CC4)C3)C2)C1 (stereo partly drawn) [Compound 2] | 29 | 0.4 | 9.04
CC(C)C(C1CCN(CC2COC2)CC1)N1CC2(CCN(c3ncnnc3Oc3ccc(F)cc3-c3cncnc3C3CC3)C2)C1 (stereo not drawn) [Compound 6] | 280 | 0.3 | 6.47
CC(C)C([C@H]1C[C@@H](N2CCOCC2)C1)N1CC2(CCN(c3ncnnc3Oc3ccc(F)cc3-c3cncnc3C3CC3)C2)C1 (stereo partly drawn) [Compound 120] | 73 | 0.3 | > 15
CC(C)C([C@H]1C[C@@H](N2CCC(O)CC2)C1)N1CC2(CCN(c3ncnnc3Oc3ccc(F)cc3-c3cncnc3C3CC3)C2)C1 (stereo partly drawn) [Compound 121] | 7 | 0.1 | 2.78
CC(C)C([C@H]1C[C@@H](N2CCC(C#N)CC2)C1)N1CC2(CCN(c3ncnnc3Oc3ccc(F)cc3-c3cncnc3C3CC3)C2)C1 (stereo partly drawn) [Compound 122] | 55 | 0.2 | > 15

SMILES | IC50 (MOLM14 cells) [nM] | IC50 [1] [nM] | IC50 (KO-52 cells) [µM]
CC(C)C([C@H]1C[C@@H](N2CCS(=O)(=O)CC2)C1)N1CC2(CCN(c3ncnnc3Oc3ccc(F)cc3-c3cncnc3C3CC3)C2)C1 (stereo partly drawn) [Compound 123] | 1910 | 5.4 | > 15
COC1CCN([C@H]2C[C@@H](C(C(C)C)N3CC4(CCN(c5ncnnc5Oc5ccc(F)cc5-c5cncnc5C5CC5)C4)C3)C2)CC1 (stereo partly drawn) [Compound 124] | 12 | 0.2 | 2.52
CC(C)C([C@H]1C[C@@H](N2CC(O)C2)C1)N1CC2(CCN(c3ncnnc3Oc3ccc(F)cc3-c3cncnc3C3CC3)C2)C1 (stereo partly drawn) [Compound 125] | 12 | 0.1 | 5.3
CC(C)C([C@H]1C[C@H](N2CC(O)C2)C1)N1CC2(CCN(c3ncnnc3Oc3ccc(F)cc3-c3cncnc3C3CC3)C2)C1 (stereo partly drawn) [Compound 126] | 150 | 0.4 | 14.9
CC(C)C([C@H]1C[C@@H](N2CCC(F)(F)CC2)C1)N1CC2(CCN(c3ncnnc3Oc3ccc(F)cc3-c3cncnc3C3CC3)C2)C1 (stereo partly drawn) [Compound 127] | 160 | 0.5 | 4.66
CC(C)C([C@H]1C[C@H](N2CCC(F)(F)CC2)C1)N1CC2(CCN(c3ncnnc3Oc3ccc(F)cc3-c3cncnc3C3CC3)C2)C1 (stereo partly drawn) [Compound 128] | 450 | 1.3 | 7.89
CC(C)C([C@H]1C[C@@H](N2CCC(C)(O)CC2)C1)N1CC2(CCN(c3ncnnc3Oc3ccc(F)cc3-c3cncnc3C3CC3)C2)C1 (stereo partly drawn) [Compound 129] | 11 | 0.2 | 3.39
CC(C)C([C@H]1C[C@@H](N2CCC(C(=O)N(C)C)CC2)C1)N1CC2(CCN(c3ncnnc3Oc3ccc(F)cc3-c3cncnc3C3CC3)C2)C1 (stereo partly drawn) [Compound 131] | 50 | 0.2 | 6.2
CC(C)C([C@H]1C[C@@H](N2CCC(S(C)(=O)=O)CC2)C1)N1CC2(CCN(c3ncnnc3Oc3ccc(F)cc3-c3cncnc3C3CC3)C2)C1 (stereo partly drawn) [Compound 132] | 76 | 0.3 | 8.1
CC(C)C([C@H]1C[C@@H](NCC(C)(C)O)C1)N1CC2(CCN(c3ncnnc3Oc3ccc(F)cc3-c3cncnc3C3CC3)C2)C1 (stereo partly drawn) [Compound 133] | 21 | 0.1 | 7.38
CC(C)C([C@H]1C[C@@H](N2CCCCC2)C1)N1CC2(CCN(c3ncnnc3Oc3ccc(F)cc3-c3cncnc3C3CC3)C2)C1 (stereo partly drawn) [Compound 135] | 8 | 0.3 | 1
CC(C)C([C@H]1C[C@@H](N(C)C)C1)N1CC2(CCN(c3ncnnc3Oc3ccc(F)cc3-c3cncnc3C3CC3)C2)C1 (stereo partly drawn) [Compound 136] | 8 | 0.1 | 7.07
CC(C)C([C@H]1C[C@@H](N2C[C@H]3COC[C@H]3C2)C1)N1CC2(CCN(c3ncnnc3Oc3ccc(F)cc3-c3cnccc3C3CC3)C2)C1 (stereo partly drawn) [Compound 138] | 2 | 0.1 | 0.46
CC(C)C([C@H]1C[C@H](N2C[C@H]3COC[C@H]3C2)C1)N1CC2(CCN(c3ncnnc3Oc3ccc(F)cc3-c3cnccc3C3CC3)C2)C1 (stereo partly drawn) [Compound 139] | 41 | 0.1 | 1.31
CC(C)C([C@H]1C[C@@H](N2C[C@H]3COC[C@H]3C2)C1)N1CC2(CCN(c3ncnnc3Oc3ccc(F)cc3-c3cncc(C#N)c3C3CC3)C2)C1 (stereo partly drawn) [Compound 142] | 7 | 0.1 | 1.35
CC(C)C([C@H]1C[C@H](N2C[C@H]3COC[C@H]3C2)C1)N1CC2(CCN(c3ncnnc3Oc3ccc(F)cc3-c3cncc(C#N)c3C3CC3)C2)C1 (stereo partly drawn) [Compound 143] | 27 | 0.1 | 1.53
